Counter-ions that a name gives are not always drawn.

Usually melting point stands for the temperature, or range, at which the solid turns liquid. For `Cl.O=C1O[C@@H](Cn2ccnn2)CN1c1ccc(-c2ccc(C3=NO[C@@H](CN4CCOCC4)C3)nc2)c(F)c1`, the melting point was 239 to 245 °C.

As to `Cl.O=C1O[C@@H](Cn2ccnn2)CN1c1ccc(-c2ccc(C3=NO[C@H](CN4CCOCC4)C3)nc2)c(F)c1`, the melting point was determined as 242 °C. With `O=C1O[C@@H](Cn2ccnn2)CN1c1ccc(-c2ccc(C3=NO[C@H](CN4CCCC4)C3)nc2)c(F)c1` (as salt: hydrochloride) [Example 12], the melting point fell in the range of 260 to 263 °C. Then `O=C1O[C@@H](Cn2ccnn2)CN1c1ccc(-c2ccc(C3=NO[C@H](CN4CCCCC4)C3)nc2)c(F)c1` (as salt: hydrochloride) [Example 13, (5R)-3-(3-Fluoro-4-{6-[(5S)-5-(piperidin-1-ylmethyl)-4,5-dihydroisoxazol-3-yl]pyridin-3-yl}phenyl)-5-(1H-1,2,3-triazol-1-ylmethyl)-1,3-oxazolidin-2-one], with 211 to 215 °C.

Compound `O=C1O[C@@H](Cn2ccnn2)CN1c1ccc(-c2ccc(C3=NO[C@H](CN4CC=CCC4)C3)nc2)c(F)c1` (as salt: hydrochloride) [Example 14, (5R)-3-(4-{6-[(5S)-5-(3,6-Dihydropyridin-1(2H)-ylmethyl)-4,5-dihydroisoxazol-3-yl]pyridin-3-yl}-3-fluorophenyl)-5-(1H-1,2,3-triazol-1-ylmethyl)-1,3-oxazolidin-2-one] came in with a melting point of 250 to 255 °C. For `CN(C)CC(=O)NC[C@@H]1CC(c2ccc(-c3ccc(N4C[C@H](Cn5ccnn5)OC4=O)cc3F)cn2)=NO1` (as salt: hydrochloride) [Example 17, N^1-{[(5S)-3-(5-{2-Fluoro-4-[(5R)-2-oxo-5-(1H-1,2,3-triazol-1-ylmethyl)-1,3-oxazolidin-3-yl]phenyl}pyridin-2-yl)-4,5-dihydroisoxazol-5-yl]methyl}-N^2,N^2-dimethylglycinamide hydrochloride], the melting point lay within 202 to 204 °C. On to `O=C(NC[C@@H]1CC(c2ccc(-c3ccc(N4C[C@H](Cn5ccnn5)OC4=O)cc3F)cn2)=NO1)[C@@H]1CCCN1` (as salt: hydrochloride) [Example 20, N-{[(5S)-3-(5-{2-Fluoro-4-[(5R)-2-oxo-5-(1H-1,2,3-triazol-1-ylmethyl)-1,3-oxazolidin-3-yl]phenyl}pyridin-2-yl)-4,5-dihydroisoxazol-5-yl]methyl}-L-prolinamide hydrochloride], for which the melting point lay in the range of 246 to 249 °C. With `CC(C)[C@@H](N)C(=O)NC[C@@H]1CC(c2ccc(-c3ccc(N4C[C@H](Cn5ccnn5)OC4=O)cc3F)cn2)=NO1` (as salt: hydrochloride) [Example 21, N^1-{[(5S)-3-(5-{2-Fluoro-4-[(5R)-2-oxo-5-(1H-1,2,3-triazol-1-ylmethyl)-1,3-oxazolidin-3-yl]phenyl}pyridin-2-yl)-4,5-dihydroisoxazol-5-yl]methyl}-D-valinamide hydrochloride], the melting point lay in the range of 130 to 134 °C. `C[C@H](N)C(=O)NC[C@@H]1CC(c2ccc(-c3ccc(N4C[C@H](Cn5ccnn5)OC4=O)cc3F)cn2)=NO1` (as salt: hydrochloride) [Example 22, N^1-{[(5S)-3-(5-{2-fluoro-4-[(5R)-2-oxo-5-(1H-1,2,3-triazol-1-ylmethyl)-1,3-oxazolidin-3-yl]phenyl}pyridin-2-yl)-4,5-dihydroisoxazol-5-yl]methyl}-L-alaninamide hydrochloride] displayed a melting point of 242 to 244 °C.

In turn, `CN(C)CC(=O)N(C)C[C@@H]1CC(c2ccc(-c3ccc(N4C[C@H](Cn5ccnn5)OC4=O)cc3F)cn2)=NO1` (as salt: hydrochloride) [Example 23, N^1-{[(5S)-3-(5-{2-fluoro-4-[(5R)-2-oxo-5-(1H-1,2,3-triazol-1-ylmethyl)-1,3-oxazolidin-3-yl]phenyl}pyridin-2-yl)-4,5-dihydroisoxazol-5-yl]methyl}-N^1,N^2,N^2-trimethylglycinamide] showed a melting point of 122 to 132 °C. Compound `O=C1O[C@@H](Cn2ccnn2)CN1c1ccc(-c2ccc(C3=NO[C@H](CN4CCOCC4)C3)nc2)c(F)c1` (as salt: sulfonic acid salt) [Example 3c, (5R)-3-(3-Fluoro-4-{6-[(5S)-5-(morpholin-4-ylmethyl)-4,5-dihydroisoxazol-3-yl]pyridin-3-yl}phenyl)-5-(1H-1,2,3-triazol-1-ylmethyl)-1,3-oxazolidin-2-one, methanesulfonic acid salt] returned a melting point of 165 to 168 °C. Turning to `N[C@@H](CCC(=O)O)C(=O)NC[C@@H]1CC(c2ccc(-c3ccc(N4C[C@H](Cn5ccnn5)OC4=O)cc3F)cn2)=NO1` (racemic) [Example 29, N^1-{[(5S)-3-(5-{2-Fluoro-4-[(SR)-2-oxo-5-(1H-1,2,3-triazol-1-ylmethyl)-1,3-oxazolidin-3-yl]phenyl}pyridin-2-yl)-4,5-dihydroisoxazol-5-yl]methyl}-L-α-glutamine], the melting point fell in the range of 215 to 217 °C. The result for `CN(C)C[C@@H]1CC(c2ccc(-c3ccc(N4C[C@H](Cn5ccnn5)OC4=O)cc3F)cn2)=NO1` [Example 1, (5R)-3-[4-(6-{(5S)-5-[(Dimethylamino)methyl]-4,5-dihydroisoxazol-3-yl}pyridin-3-yl)-3-fluorophenyl]-5-(1H-1,2,3-triazol-1-ylmethyl)-1,3-oxazolidin-2-one] reads 212 °C; that for `CNC[C@@H]1CC(c2ccc(-c3ccc(N4C[C@H](Cn5ccnn5)OC4=O)cc3F)cn2)=NO1` [Example 2], 215 °C.

As for `Br.O=C1O[C@@H](Cn2ccnn2)CN1c1ccc(-c2ccc(C3=NO[C@H](CN4CCOCC4)C3)nc2)c(F)c1` [Example 3b], the melting point was > 280 °C (dec.).

As to `CN1CCN(C[C@@H]2CC(c3ccc(-c4ccc(N5C[C@H](Cn6ccnn6)OC5=O)cc4F)cn3)=NO2)CC1` [Example 4, (5R)-3-[3-Fluoro-4-(6-{(5S)-5-[(4-methylpiperazin-1-yl)methyl]-4,5-dihydroisoxazol-3-yl}pyridin-3-yl)phenyl]-5-(1H-1,2,3-triazol-1-ylmethyl)-1,3-oxazolidin-2-one], the melting point is 218 °C. As to `O=C1O[C@@H](Cn2ccnn2)CN1c1ccc(-c2ccc(C3=NO[C@H](CNCCO)C3)nc2)c(F)c1` [Example 5, (5R)-3-{3-Fluoro-4-[6-((5S)-5-{[(2-hydroxyethyl)amino]methyl}-4,5-dihydroisoxazol-3-yl)pyridin-3-yl]phenyl}-5-(1H-1,2,3-triazol-1-ylmethyl)-1,3-oxazolidin-2-one], the melting point worked out at 190 °C. Take `CCCCNC[C@@H]1CC(c2ccc(-c3ccc(N4C[C@H](Cn5ccnn5)OC4=O)cc3F)cn2)=NO1` [Example 6, (5R)-3-[4-(6-{(5S)-5-[(Butylamino)methyl]-4,5-dihydroisoxazol-3-yl}pyridin-3-yl)-3-fluorophenyl]-5-(1H-1,2,3-triazol-1-ylmethyl)-1,3-oxazolidin-2-one]: the melting point was found to be 230 °C. In turn, `O=C1O[C@@H](Cn2ccnn2)CN1c1ccc(-c2ccc(C3=NO[C@H](CN4CCSCC4)C3)nc2)c(F)c1` [Example 7, (5R)-3-(3-Fluoro-4-{6-[(5S)-5-(thiomorpholin-4-ylmethyl)-4,5-dihydroisoxazol-3-yl]pyridin-3-yl}phenyl)-5-(1H-1,2,3-triazol-1-ylmethyl)-1,3-oxazolidin-2-one] displayed a melting point of 222 to 225 °C. For `O=C1O[C@@H](Cn2ccnn2)CN1c1ccc(-c2ccc(C3=NO[C@H](CN4CC[S+]([O-])CC4)C3)nc2)c(F)c1` [Example 8, (5R)-3-[3-Fluoro-4-(6-{(5S)-5-[(1-oxidothiomorpholin-4-yl)methyl]-4,5-dihydroisoxazol-3-yl}pyridin-3-yl)phenyl]-5-(1H-1,2,3-triazol-1-ylmethyl)-1,3-oxazolidin-2-one], the melting point lay in the range of 218 to 220 °C. Consider `O=C1O[C@@H](Cn2ccnn2)CN1c1ccc(-c2ccc(C3=NO[C@H](CN4CCS(=O)(=O)CC4)C3)nc2)c(F)c1` [Example 9, (5R)-3-[4-(6-{(5S)-5-[(1,1-Dioxidothiomorpholin-4-yl)methyl]-4,5-dihydroisoxazol-3-yl}pyridin-3-yl)-3-fluorophenyl]-5-(1H-1,2,3-triazol-1-ylmethyl)-1,3-oxazolidin-2-one], for which the melting point was 200 to 203 °C. In turn, `CN(CCO)C[C@@H]1CC(c2ccc(-c3ccc(N4C[C@H](Cn5ccnn5)OC4=O)cc3F)cn2)=NO1` [Example 10, (5R)-3-[3-Fluoro-4-[6-((5S)-5-{[(2-hydroxyethyl)(methyl)amino]methyl]-4,5-dihydroisoxazol-3-yl)pyridin-3-yl]phenyl}-5-(1H-1,2,3-triazol-1-ylmethyl)-1,3-oxazolidin-2-one] came in with a melting point of 153 to 156 °C. The compound `O=C1O[C@@H](Cn2ccnn2)CN1c1ccc(-c2ccc(C3=NO[C@@H](CN4CCOCC4)C3)nc2)c(F)c1` [Example 11, (5R)-3-(3-Fluoro-4-{6-[(5R)-5-(morpholin-4-ylmethyl)-4,5-dihydroisoxazol-3-yl]pyridin-3-yl}phenyl)-5-(1H-1,2,3-triazol-1-ylmethyl)-1,3-oxazolidin-2-one] registered a melting point of 239 to 245 °C. As for `CC(C)(C)OC(=O)NC[C@@H]1CC(c2ccc(-c3ccc(N4C[C@H](Cn5ccnn5)OC4=O)cc3F)cn2)=NO1` [Example 15, tert-Butyl {[(5S)-3-(5-{2-fluoro-4-[(5R)-2-oxo-5-(1H-1,2,3-triazol-1-ylmethyl)-1,3-oxazolidin-3-yl]phenyl}pyridin-2-yl)-4,5-dihydroisoxazol-5-yl]methyl}carbamate], the melting point lay in the range of 228 to 230 °C. `CN(CC(=O)OC(C)(C)C)C[C@@H]1CC(c2ccc(-c3ccc(N4C[C@H](Cn5ccnn5)OC4=O)cc3F)cn2)=NO1` [Example 18, tert-Butyl N-{[(5S)-3-(5-{2-fluoro-4-[(5R)-2-oxo-5-(1H-1,2,3-triazol-1-ylmethyl)-1,3-oxazolidin-3-yl]phenyl}pyridin-2-yl)-4,5-dihydroisoxazol-5-yl]methyl}-N-methylglycinate] showed a melting point of 180 °C. Then `CN(CC(=O)O)C[C@@H]1CC(c2ccc(-c3ccc(N4C[C@H](Cn5ccnn5)OC4=O)cc3F)cn2)=NO1` [Example 19, N-{[(5S)-3-(5-{2-Fluoro-4-[(5R)-2-oxo-5-(1H-1,2,3-triazol-1-ylmethyl)-1,3-oxazolidin-3-yl]phenyl}pyridin-2-yl)-4,5-dihydroisoxazol-5-yl]methyl}-N-methylglycine], with 212 to 218 °C.
